Measurements taken from patent publication EP0278686A1, “Pyridopyrimidines methods for their preparation and pharmaceutical formulations thereof” (THE WELLCOME FOUNDATION LIMITED, priority 1987, dated 1988).

Key:
DHFR [1] = target: T1, DHFR (Escherichia coli, UniProt P0ABQ4); test: In vitro DHFR binding affinities (DHFR inhibition), E. coli enzyme; assay type: biochemical
T1 construct: DHFR isolated from bacterial and mammalian sources; endogenous in cells
Method: (§1) The inhibition by the title compound of DHFR isolated from bacterial and mammalian sources was determined using known procedures [B. Roth et al., J. Med. Chem., 24, 933 (1981)].

DHFR [2] = target: T2, DHFR (Rattus norvegicus, UniProt Q920D2); test: In vitro DHFR binding affinities (DHFR inhibition), rat liver enzyme; assay type: biochemical
T2 construct: DHFR isolated from bacterial and mammalian sources; from tissue; host or cells: rat liver
T2 sequence (Q920D2 1-187): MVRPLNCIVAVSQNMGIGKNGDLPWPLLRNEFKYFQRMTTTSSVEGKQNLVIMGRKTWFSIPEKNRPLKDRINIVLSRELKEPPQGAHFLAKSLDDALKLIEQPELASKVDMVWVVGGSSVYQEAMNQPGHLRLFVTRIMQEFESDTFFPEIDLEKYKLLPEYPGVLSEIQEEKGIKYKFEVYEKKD
Method: as §1

[3] = test system: human T-cell line CCRF/CEM; test: In vitro cytotoxicity in cell culture, CCRF/CEM; assay type: cell-based; details: read-out: ED50 (the source's name)
Method: (§2) The cytotoxicity of the test compounds was determined in cell culture using the human T-cell line CCRF/CEM (ATCC CCL 119) and also the human breast cancer cell line MCF-7 [H.D. Soule, et al., J.. Nat. Cancer Inst., 51, 1409 (1973)].

[4] = test system: human breast cancer cell line MCF-7; test: In vitro cytotoxicity in cell culture, MCF-7; assay type: cell-based; details: MCF7, Cell line MCF-7, cytotoxicity, read-out: ED50 (the source's name)
Method: as §2

Compound | IC50 (DHFR [1]) [nM] | IC50 (DHFR [2]) [nM] | EC50 [3] [nM] | EC50 [4] [nM]
COc1ccc(O)c(Cc2cnc3nc(N)nc(N)c3c2C)c1 [Compound A, 2,4-diamino-5-methyl-6-(2-hydroxy-5-methoxybenzyl)pyrido[2,3-d] pyrimidine] | 8 | 18 | 400 | 790
COc1ccc(O)cc1Cc1cnc2nc(N)nc(N)c2c1C [Compound B, 2,4-diamino-5-methyl-6-(5-hydroxy-2-methoxybenzyl)pyrido[2,3-d] pyrimidine] | 16 | 12 | 80 | 750
